Activity calls are given as the source filed them.
Key:
[1] = molecular target: Cytochrome P450 2C9 (Homo sapiens, UniProt P11712)
[2] = molecular target: T1, Corticotropin-releasing factor receptor 2/Corticotropin-releasing factor-binding protein (Homo sapiens, UniProt P24387+Q13324); assay: Dose Response confirmation of uHTS hits for small molecule antagonists of the CRF-binding protein and CRF-R2 receptor complex.; type: functional; details: read-out: IC50_Mean
T1 sequence (Q13324 whole entry): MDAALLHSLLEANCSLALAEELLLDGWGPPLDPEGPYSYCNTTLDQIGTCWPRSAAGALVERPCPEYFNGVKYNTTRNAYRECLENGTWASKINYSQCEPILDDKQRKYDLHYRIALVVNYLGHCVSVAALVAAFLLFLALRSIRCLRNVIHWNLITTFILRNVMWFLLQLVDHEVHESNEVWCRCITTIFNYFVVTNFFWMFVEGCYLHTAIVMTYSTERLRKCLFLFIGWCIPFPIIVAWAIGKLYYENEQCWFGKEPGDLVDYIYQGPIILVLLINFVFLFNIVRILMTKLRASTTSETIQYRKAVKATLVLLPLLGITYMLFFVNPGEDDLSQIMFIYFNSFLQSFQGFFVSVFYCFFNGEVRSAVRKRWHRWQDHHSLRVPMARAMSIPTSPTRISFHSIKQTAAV
T1 sequence (P24387 whole entry): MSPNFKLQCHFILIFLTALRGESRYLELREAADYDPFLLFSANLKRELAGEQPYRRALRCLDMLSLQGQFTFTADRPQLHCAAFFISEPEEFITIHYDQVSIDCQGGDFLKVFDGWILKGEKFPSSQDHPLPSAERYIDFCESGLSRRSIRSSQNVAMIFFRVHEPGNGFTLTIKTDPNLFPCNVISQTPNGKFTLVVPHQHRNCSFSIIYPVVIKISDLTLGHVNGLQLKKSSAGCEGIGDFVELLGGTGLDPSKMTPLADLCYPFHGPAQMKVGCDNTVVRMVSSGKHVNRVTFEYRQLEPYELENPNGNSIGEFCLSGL

[3] = molecular target: T1, Corticotropin-releasing factor receptor 2/Corticotropin-releasing factor-binding protein; assay: activators of CRF receptor 2 with binding protein – uHTS hits, confirmation (AID 602473); type: functional; details: read-out: EC50_Mean
[4] = molecular target: Cytochrome P450 2C19 (Homo sapiens, UniProt P33261); assay: Cytochrome panel assay with activity outcomes. Panel member name: p450-cyp2c19 Compounds with AC50 equal or less than 10 uM are considered active; type: functional
Cytochrome P450 2C19, sequence (P33261 whole entry): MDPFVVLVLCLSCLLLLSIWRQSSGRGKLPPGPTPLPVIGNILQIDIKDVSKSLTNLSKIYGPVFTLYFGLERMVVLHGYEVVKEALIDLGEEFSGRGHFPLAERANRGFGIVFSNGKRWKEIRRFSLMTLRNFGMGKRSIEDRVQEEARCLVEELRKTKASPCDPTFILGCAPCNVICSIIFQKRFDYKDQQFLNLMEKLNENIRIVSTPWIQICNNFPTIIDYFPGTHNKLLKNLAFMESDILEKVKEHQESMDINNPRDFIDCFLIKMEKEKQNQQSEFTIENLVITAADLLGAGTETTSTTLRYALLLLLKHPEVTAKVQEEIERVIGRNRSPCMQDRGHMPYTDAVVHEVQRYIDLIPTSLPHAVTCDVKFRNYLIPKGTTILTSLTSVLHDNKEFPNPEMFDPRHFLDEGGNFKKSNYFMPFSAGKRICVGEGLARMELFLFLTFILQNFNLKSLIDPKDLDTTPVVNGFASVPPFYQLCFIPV

[5] = molecular target: Cytochrome P450 2D6 (Homo sapiens, UniProt P10635);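 also: CYP2D6 member of a cytochrome P450 panel assay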
Cytochrome P450 2D6, sequence (P10635 whole entry): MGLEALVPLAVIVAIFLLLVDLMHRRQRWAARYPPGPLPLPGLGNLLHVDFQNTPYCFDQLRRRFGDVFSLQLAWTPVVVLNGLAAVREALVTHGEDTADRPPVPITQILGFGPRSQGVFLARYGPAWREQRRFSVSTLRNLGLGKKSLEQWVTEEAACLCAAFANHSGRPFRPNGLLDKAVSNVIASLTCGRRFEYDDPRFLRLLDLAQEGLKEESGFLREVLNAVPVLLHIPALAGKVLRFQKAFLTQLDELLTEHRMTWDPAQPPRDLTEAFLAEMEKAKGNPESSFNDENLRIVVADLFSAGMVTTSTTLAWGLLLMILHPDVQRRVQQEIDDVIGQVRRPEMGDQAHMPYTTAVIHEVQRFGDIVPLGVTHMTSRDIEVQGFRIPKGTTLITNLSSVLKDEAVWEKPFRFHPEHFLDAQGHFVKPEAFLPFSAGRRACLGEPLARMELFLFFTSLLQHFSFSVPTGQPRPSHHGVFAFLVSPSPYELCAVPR

[6] = molecular target: T2, Cytochrome P450 1A2 (Homo sapiens, UniProt P05177);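 also: PubChem cytochrome P450 panel assay, CYP1A2 panel member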
T2 sequence (P05177 whole entry): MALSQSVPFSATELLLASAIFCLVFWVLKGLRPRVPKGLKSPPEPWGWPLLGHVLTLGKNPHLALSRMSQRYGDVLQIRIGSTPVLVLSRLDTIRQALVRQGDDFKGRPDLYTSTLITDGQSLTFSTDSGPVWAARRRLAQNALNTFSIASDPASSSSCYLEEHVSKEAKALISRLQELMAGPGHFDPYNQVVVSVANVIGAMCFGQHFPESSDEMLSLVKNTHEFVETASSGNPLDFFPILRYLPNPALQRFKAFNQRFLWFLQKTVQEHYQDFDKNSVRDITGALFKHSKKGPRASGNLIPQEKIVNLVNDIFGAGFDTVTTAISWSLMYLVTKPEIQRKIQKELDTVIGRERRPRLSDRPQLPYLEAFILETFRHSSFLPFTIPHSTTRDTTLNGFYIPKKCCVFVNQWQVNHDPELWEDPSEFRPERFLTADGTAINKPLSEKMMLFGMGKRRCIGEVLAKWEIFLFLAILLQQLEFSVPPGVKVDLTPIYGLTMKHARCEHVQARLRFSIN

Cytochrome P450 2C9, sequence (P11712 whole entry): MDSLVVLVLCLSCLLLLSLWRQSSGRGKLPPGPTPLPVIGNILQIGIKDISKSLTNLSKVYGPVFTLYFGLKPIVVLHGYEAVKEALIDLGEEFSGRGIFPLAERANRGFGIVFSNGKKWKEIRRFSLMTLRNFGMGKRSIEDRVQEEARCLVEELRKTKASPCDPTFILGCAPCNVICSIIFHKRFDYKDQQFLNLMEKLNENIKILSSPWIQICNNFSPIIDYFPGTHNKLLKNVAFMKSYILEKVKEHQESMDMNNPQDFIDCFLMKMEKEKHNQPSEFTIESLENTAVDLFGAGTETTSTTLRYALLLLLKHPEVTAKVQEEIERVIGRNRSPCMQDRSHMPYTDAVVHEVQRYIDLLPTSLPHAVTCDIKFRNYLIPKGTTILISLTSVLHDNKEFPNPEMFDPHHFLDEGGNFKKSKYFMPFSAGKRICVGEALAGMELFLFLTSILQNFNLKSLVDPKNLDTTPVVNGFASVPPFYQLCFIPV

SMILES | AC50 [1] | IC50 [2] | EC50 [3] | further results
Cn1c(=O)c(C(=O)NCc2ccccc2Cl)c(O)c2ccccc21 |  | > 47.1 µM (inactive) | > 53 µM (inactive) | 
N=C1[C@@H](O)[C@]2(I)c3ccccc3N3C(=N)[C@H](O)[C@@H]4c5ccccc5N1[C@@H]4[C@@H]32 | 7.94 µM (inconclusive) |  |  | AC50 [5]: 6.31 µM (inconclusive)
COc1cc(=O)n2c(n1)SCCC2 | 31.6 µM (inconclusive) |  |  | 
CCN=C(S)NNC(=O)c1cccc(Br)c1 |  |  |  | AC50 ([4]; read-out: AC50): 5.62 µM (inconclusive); AC50 [6]: 17.8 µM (inconclusive)
Cc1ccc2[nH]c(Cc3ccc(N)cc3)nc2c1 | 14.1 µM (inconclusive) |  |  | 
O=C1C2C3C=CC(C3)C2C(=O)N1CCCO (centres undefined) |  | > 47.1 µM (inactive) | > 53 µM (inactive) | 
CN1CCN(c2ncc3nc(-c4ccc(Cl)cc4)c(=O)n(CCC#N)c3n2)CC1 |  |  |  | AC50 [4]: inconclusive; AC50 [6]: 15.8 µM (inconclusive)
Cc1ccc(/N=N\c2c(O)ccc3cc(S(=O)(=O)O)ccc23)cc1 | 3.16 µM (inconclusive) |  |  | AC50 [6]: 5.01 µM (inconclusive)
c1ccc(-n2c(-c3ccncc3)nnc2-c2ccco2)cc1 |  | > 47.1 µM (inactive) | > 53 µM (inactive) | 
COc1ccc(-c2csc(NC(=O)CN3C(=O)C4CC=CCC4C3=O)n2)cc1OC (centres undefined) |  | > 47.1 µM (inactive) | > 53 µM (inactive) | 
COC(=O)CC1SC(=O)NC1=Nc1ccc(OC)cc1 (centres undefined) |  | > 47.1 µM (inactive) | > 53 µM (inactive) | 
Cc1onc(-c2ccccc2Cl)c1C(=O)NCc1ccc(N2CCCC2=O)cc1 |  | > 47.1 µM (inactive) | > 53 µM (inactive) | 
O=[N+]([O-])c1ccc(Nc2nc(N/N=C\c3ccc4c(c3)OCO4)nc(N3CCCCC3)n2)cc1 | 8.91 µM (inconclusive) |  |  | AC50 [6]: 8.91 µM (inconclusive)
O=C1/C(=N\O)Cc2ccccc21 |  |  |  | AC50 ([4]; read-out: AC50): 39.8 µM (inconclusive); AC50 [6]: 14.1 µM (inconclusive)

Now from value to molecule, other results behind:

AC50 [1] | IC50 [2] | EC50 [3] | SMILES | further results
14.1 µM (inconclusive) |  |  | Clc1cccc(Oc2cnc3ccccc3n2)c1 | 
 | > 47.1 µM (inactive) | > 53 µM (inactive) | CCn1cc(C2=NOC(C(=O)Nc3ccccc3C(=O)OC)C2)c(C)n1 (centres undefined) | 
5.01 µM (inconclusive) |  |  | CCCS(=O)(=O)N1CCCC(C(=O)NCCCN2CCN(c3ccccc3F)CC2)C1 (centres undefined) | AC50 ([4]; read-out: AC50): 39.8 µM (inconclusive)
 | > 47.1 µM (inactive) | > 53 µM (inactive) | NS(=O)(=O)c1ccc(NC(=O)CSc2nnc(COc3ccccc3Cl)n2C2CC2)cc1 | 
22.4 µM (inconclusive) |  |  | Oc1c2c(nc3c(-c4ccccc4)cnn13)CCC2 | AC50 ([4]; read-out: AC50): 31.6 µM (inconclusive)
 | > 47.1 µM (inactive) | > 53 µM (inactive) | CCOC(=O)C1CCN(C(=O)c2n[nH]c(=O)c3ccccc23)CC1 | 
 | > 47.1 µM (inactive) | > 53 µM (inactive) | Fc1cccc(NC(S)=NCc2ccc(Cl)cc2)c1 | 
39.8 µM (inconclusive) |  |  | CCn1c(SCC(=O)NC(=O)NCc2ccco2)nnc1-c1cccs1 | 
0.501 µM (inconclusive) |  |  | COc1ccccc1CNc1ccnc(-c2c(C)noc2C)n1 | AC50 [5]: 20 µM (inconclusive)
 | > 47.1 µM (inactive) | > 53 µM (inactive) | Cc1ncn(C23CC4CC(CC(C4)C2)C3)n1 | 
